# Data: the supplement of paper PMC6045584
# ± gives the standard deviation of the averaged measurements.
# What was measured:
# [1] = compound: Cn1cc(C2=Nc3cc(NC(=O)C(N)C4CCCCC4)cc4c3C2=CNNC4=O)cn1; assay: surviving fraction relative to DMSO-only wells; higher = less growth inhibition; conditions: exposure time: 5 days
# Summary of the method: (§1)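 Five days of continuous inhibitor exposure, at 0.5, 1, 5, 10, 50, 100, 500 and 1000 nM, followed a 24-hour period after log-phase tumour cell lines were seeded at 250–500 cells per well in 384-well plates. Surviving fraction was derived from CellTiter-Glo luminescence relative to the median of DMSO-only wells. Plates were read after 10 minutes at room temperature, and lines screened three times were kept only if replicate Pearson r >0.7 and median Z' >0.3.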
# [2] = compound: CC[C@@H]1C(=O)N(C)c2cnc(Nc3ccc(C(=O)NC4CCN(C)CC4)cc3OC)nc2N1C1CCCC1 [BI-2536]; assay: as above; conditions: exposure time: 5 days
# Summary of the method: as §1
Test System,surviving fraction ([1]; 0.5 nM),surviving fraction ([1]; 1 nM),surviving fraction ([1]; 5 nM),surviving fraction ([1]; 10 nM),surviving fraction ([1]; 50 nM),surviving fraction ([1]; 100 nM),surviving fraction ([1]; 500 nM),surviving fraction ([1]; 1000 nM),surviving fraction ([2]; 0.5 nM),surviving fraction ([2]; 1 nM),surviving fraction ([2]; 5 nM),surviving fraction ([2]; 10 nM),surviving fraction ([2]; 50 nM),surviving fraction ([2]; 100 nM),surviving fraction ([2]; 500 nM),surviving fraction ([2]; 1000 nM)
HCC1395 BREAST,0.805 ± 0.1,0.961 ± 0.16,0.938 ± 0.13,0.975 ± 0.11,0.766 ± 0.071,0.68 ± 0.17,0.578 ± 0.088,0.521 ± 0.065,1.04 ± 0.12,0.9 ± 0.043,0.709 ± 0.18,0.623 ± 0.15,0.729 ± 0.071,0.661 ± 0.05,1.11 ± 0.19,0.78 ± 0.029
YAMATO SYNOVIAL,1.32 ± 0.11,1.28 ± 0.16,1.32 ± 0.093,1.33 ± 0.12,0.8 ± 0.032,0.682 ± 0.077,0.285 ± 0.011,0.258 ± 0.017,1.05 ± 0.061,0.888 ± 0.05,0.345 ± 0.0062,0.315 ± 0.0095,0.324 ± 0.013,0.256 ± 0.014,0.279 ± 0.018,0.336 ± 0.027
CAL72 BONE,1.04 ± 0.03,1.02 ± 0.038,1.02 ± 0.019,1.02 ± 0.04,0.937 ± 0.052,0.836 ± 0.043,0.111 ± 0.011,0.147 ± 0.01,1 ± 0.019,0.742 ± 0.12,0.2 ± 0.021,0.147 ± 0.033,0.12 ± 0.026,0.0987 ± 0.015,0.104 ± 0.019,0.0927 ± 0.009
93VU HEADNECK,0.976 ± 0.077,1 ± 0.069,1.07 ± 0.02,1.09 ± 0.087,0.948 ± 0.033,0.945 ± 0.064,0.741 ± 0.044,0.388 ± 0.05,1.11 ± 0.12,1.05 ± 0.06,0.507 ± 0.077,0.27 ± 0.012,0.258 ± 0.0056,0.333 ± 0.056,0.205 ± 0.023,0.123 ± 0.0066
MCF7 BREAST,0.913 ± 0.043,0.918 ± 0.052,0.92 ± 0.023,0.865 ± 0.022,0.989 ± 0.022,0.885 ± 0.029,0.745 ± 0.02,0.575 ± 0.011,0.911 ± 0.071,0.913 ± 0.07,0.797 ± 0.074,0.445 ± 0.018,0.408 ± 0.021,0.38 ± 0.022,0.394 ± 0.01,0.319 ± 0.0042
S68 BREAST,0.693 ± 0.42,1.17 ± 0.18,1.02 ± 0.12,0.901 ± 0.12,0.42 ± 0.048,0.345 ± 0.041,0.135 ± 0.012,0.0897 ± 0.0071,0.884 ± 0.16,0.839 ± 0.12,0.343 ± 0.067,0.271 ± 0.039,0.166 ± 0.013,0.116 ± 0.04,0.0923 ± 0.022,0.067 ± 0.015
HSSYII SYNOVIAL,0.92 ± 0.0095,0.96 ± 0.063,0.885 ± 0.062,0.863 ± 0.014,0.135 ± 0.01,0.046 ± 0.0044,0.0388 ± 0.0032,0.0475 ± 0.0025,0.998 ± 0.053,0.944 ± 0.04,0.102 ± 0.023,0.0418 ± 0.0018,0.045 ± 0.0054,0.0367 ± 0.001,0.0423 ± 0.0025,0.0472 ± 0.00058
JIMT1 BREAST,0.921 ± 0.046,0.941 ± 0.051,0.911 ± 0.023,0.9362 ± 0.0086,0.874 ± 0.037,0.927 ± 0.042,0.803 ± 0.011,0.424 ± 0.025,0.941 ± 0.041,0.737 ± 0.015,0.2183 ± 0.0013,0.181 ± 0.0095,0.18 ± 0.017,0.158 ± 0.02,0.143 ± 0.0061,0.0883 ± 0.0045
LM7 BONE,0.979 ± 0.073,0.898 ± 0.06,1.04 ± 0.07,1.01 ± 0.11,0.826 ± 0.017,0.651 ± 0.033,0.119 ± 0.015,0.0753 ± 0.0038,0.925 ± 0.054,0.688 ± 0.027,0.0677 ± 0.0055,0.076 ± 0.0056,0.137 ± 0.013,0.128 ± 0.025,0.0773 ± 0.004,0.0653 ± 0.012
RDES SOFT TISSUE,1.12 ± 0.071,0.961 ± 0.14,0.953 ± 0.08,1.1 ± 0.21,0.776 ± 0.2,1.08 ± 0.39,0.0493 ± 0.0045,0.0827 ± 0.011,1.05 ± 0.086,1.11 ± 0.12,0.603 ± 0.18,0.0407 ± 0.0038,0.034 ± 0.0036,0.024 ± 0.001,0.0287 ± 0.0015,0.0297 ± 0.0035
MDAMB134 BREAST,0.9005 ± 0.0064,0.987 ± 0.062,0.908 ± 0.092,0.855 ± 0.17,0.642 ± 0.067,0.525 ± 0.14,0.442 ± 0.033,0.505 ± 0.018,0.944 ± 0.11,0.699 ± 0.069,0.792 ± 0.03,0.835 ± 0.034,1.2 ± 0.058,1.101 ± 0.0092,0.788 ± 0.0092,0.644 ± 0.048
HOS BONE,1.024 ± 0.0086,1.03 ± 0.038,1.04 ± 0.041,1.02 ± 0.016,0.908 ± 0.052,0.524 ± 0.05,0.0407 ± 0.0015,0.0373 ± 0.0015,1.02 ± 0.015,0.979 ± 0.008,0.203 ± 0.044,0.031 ± 0.0027,0.0337 ± 0.0029,0.023 ± 0.001,0.018 ± 0.001,0.0207 ± 0.00058
MDAMB436 BREAST,0.847 ± 0.079,0.911 ± 0.097,0.871 ± 0.05,0.852 ± 0.11,0.813 ± 0.051,0.577 ± 0.031,0.284 ± 0.02,0.228 ± 0.011,0.841 ± 0.027,0.649 ± 0.065,0.4 ± 0.048,0.27 ± 0.0028,0.331 ± 0.017,0.379 ± 0.032,0.394 ± 0.027,0.38 ± 0.04
LNCAP PROSTATE,0.922 ± 0.12,1.11 ± 0.11,0.926 ± 0.14,0.915 ± 0.15,1.23 ± 0.052,1.06 ± 0.12,0.544 ± 0.024,0.287 ± 0.031,1.05 ± 0.099,1.03 ± 0.08,0.0577 ± 0.0084,0.0533 ± 0.0055,0.113 ± 0.018,0.115 ± 0.028,0.141 ± 0.022,0.112 ± 0.013
143B BONE,0.981 ± 0.052,1.01 ± 0.029,0.992 ± 0.033,1.0045 ± 0.00071,0.96 ± 0.052,1 ± 0.035,0.303 ± 0.0042,0.036 ± 0.0014,1.01 ± 0.023,0.954 ± 0.0071,0.117 ± 0.013,0.0745 ± 0.005,0.082 ± 0.0042,0.114 ± 0.013,0.254 ± 0.0014,0.235 ± 0.025
HT1080 SOFT TISSUE,0.977 ± 0.013,1.01 ± 0.03,0.987 ± 0.028,1.03 ± 0.025,0.879 ± 0.041,0.812 ± 0.013,0.153 ± 0.0023,0.122 ± 0.016,1.05 ± 0.027,1.067 ± 0.01,0.9357 ± 0.0021,0.087 ± 0.0056,0.0513 ± 0.0051,0.051 ± 0.0035,0.077 ± 0.0046,0.0823 ± 0.0095
SUM149.B1*.S BREAST,1.045 ± 0.0088,1.1 ± 0.025,1.01 ± 0.057,1.04 ± 0.033,1.03 ± 0.062,0.954 ± 0.03,0.377 ± 0.0042,0.225 ± 0.024,1.1 ± 0.091,1.05 ± 0.03,0.416 ± 0.067,0.232 ± 0.031,0.269 ± 0.032,0.287 ± 0.021,0.297 ± 0.045,0.229 ± 0.03
CAL120 BREAST,0.966 ± 0.012,1.02 ± 0.019,1.01 ± 0.013,1.01 ± 0.038,0.966 ± 0.029,0.856 ± 0.044,0.375 ± 0.02,0.24 ± 0.023,0.941 ± 0.025,0.431 ± 0.034,0.176 ± 0.0061,0.151 ± 0.013,0.126 ± 0.01,0.113 ± 0.0079,0.0725 ± 0.0027,0.0657 ± 0.0062
HOSMNG BONE,0.954 ± 0.099,0.99 ± 0.083,0.954 ± 0.052,0.943 ± 0.016,0.992 ± 0.025,0.975 ± 0.076,0.737 ± 0.017,0.15 ± 0.031,1.03 ± 0.017,0.955 ± 0.11,0.918 ± 0.055,0.268 ± 0.033,0.047 ± 0.0036,0.046 ± 0.013,0.0673 ± 0.0061,0.0843 ± 0.013
MDAMB453 BREAST,0.971 ± 0.011,1.01 ± 0.034,0.999 ± 0.026,1.01 ± 0.04,0.784 ± 0.044,0.293 ± 0.013,0.179 ± 0.019,0.206 ± 0.011,0.994 ± 0.018,0.763 ± 0.052,0.178 ± 0.019,0.156 ± 0.025,0.173 ± 0.017,0.171 ± 0.0075,0.108 ± 0.031,0.0703 ± 0.042
